The results in this text go back to US20260209275A1, “PEPTIDE(S), COMPOSITION(S) AND METHOD(S) HAVING BROAD SPECTRUM ACTIVITY AGAINST CROP INSECTS” (TELLURIS BIOTECH INDIA PRIVATE LIMITED, priority 2022, published 2026).

The subject of the experiment is Common fruit fly, Drosophila melanogaster. The experiment in a line: Diet surface treatment bioassay against common fruit fly, population after one generation. Type of experiment: in vivo. Conditions: single peptide 0.1 mg/ml; after 14 days (one generation). As for the experimental part:
A trap made up from a ripened banana was kept in an open, shady, and damp place to capture the flies. Captured flies were anaesthetized using about 5% Triethylamine (TAE) treatment for about 1 minute. Drosophila melanogaster files were identified, separated, and transferred to a flask containing diet made up of Corn flour: about […], Sugar: about 51 μm, Agar agar: about […], Yeast: about 17 μm, Methyl Paraben: about 4 μm, Propionic acid: about 4 ml, Distilled Water: about 1200 ml. Freshly emerged flies were transferred to separate bottle to synchronize the population. The population was maintained in a separate room at a temperature of about 25±2° C., RH of about 60-65% and was subjected to a 16:8 (light: dark) h photoperiod.
The insecticide stock solutions were prepared by dilution with phosphate buffered saline (PBS, pH 7.0) to achieve desire doses of test. Semi synthetic artificial diet surface treatment method was used to assess the efficacy of IPPs against […]. Diet was prepared as per the composition given above. 2 ml hot liquid diet poured in 25 ml glass vials (5 cm h and 1.5 cm diameter) and allowed to cool and solid. […] After 14 days precisely after one generation, insect stages, egg, larvae, pupa and adults were counted.

Molecules are shown by their SMILES.

In the case of `CC[C@H](C)[C@H](NC(=O)[C@H](CCC(N)=O)NC(=O)[C@H](CCC(N)=O)NC(=O)[C@H](CCC(=O)O)NC(=O)[C@H](CCCCN)NC(=O)[C@H](CCC(N)=O)NC(=O)[C@H](CCC(=O)O)NC(=O)[C@H](C)NC(=O)[C@@H](N)CCSC)C(=O)N[C@@H](CC(C)C)C(=O)N[C@@H](CCCNC(=N)N)C(=O)N[C@@H](CC(C)C)C(=O)N[C@@H](CCCNC(=N)N)C(=O)N[C@@H](CCC(=O)O)C(=O)N[C@@H](CO)C(=O)N[C@@H](Cc1c[nH]cn1)C(=O)N[C@@H](Cc1c[nH]cn1)C(=O)N[C@@H](Cc1c[nH]cn1)C(=O)N[C@@H](Cc1c[nH]cn1)C(=O)N[C@@H](Cc1c[nH]cn1)C(=O)N[C@@H](Cc1c[nH]cn1)C(=O)O` [Seq. ID No. 3, MAEQKEQQILRLRES], the “Observed Response (Percent reduction of population over UTC) SEQ ID No. X / SEQ ID No. Y” value amounted to 37.79%.
